These results are taken from patent publication US6974671B1, “Methods for indentifying compounds that modulate gluconeogenesis through the binding of CREB to the PGC-1 promoter” (Salk Institute for Biological Studies, priority 2001, dated 2005).

The subject of assay [1] is PGC-1 promoter. As to the kind of experiment: Transient assay of HepG2 cells with PGC-1 luciferase reporter. The assay is classed as cell-based, human. From the text:
(§1) Plasmids. Expression plasmids pZEO-ACREB^22 and pcDNA3-PGC-1^24 have been described previously. Liver specific A-CREB transgene was constructed by inserting A-CREB cDNA into a liver specific albumin promoter/enhancer plasmid^5. To construct luciferase expression plasmids −490PEPCKLuc and −355PEPCKLuc BamHI/BglII fragments of the PEPCK promoter region containing 490 or 355 bp of the mouse PEPCK 5′-flanking region, respectively, were cloned into the pGL3 basic luciferase reporter vector (Promega, St. Luis Obispo). PGC-1 reporter mPGCLuc was constructed by inserting a […] fragment of the mouse PGC-1 promoter containing 170 bp of the 5′-flanking region and 68 bp of Exon 1 into the pGL3 vector.
(§2) Cell culture and transient transfection assays. Human hepatoma HepG2 cells were transfected using the Lipofectamine 2000 reagent (GIBCO BRL) according to manufacturers instructions (500 ng of indicator plasmid/well). Where indicated, expression plasmids encoding A-CREB (pZeo-ACREB)^22 or PGC-1 (pcDNA3-PGC-1)^24 were cotransfected (50 ng or 800 ng plasmid/well, respectively). Cotransfections were performed with a constant DNA amount by adding the empty pcDNA3 vector (Invitrogen). Cells were treated with Forskolin (10 μM) and/or Dexamethasone (100 nM) or insulin (10 nM) for 14 h. […]
A general note: In a reporter assay the amount or activity of a reporter protein is the signal.

Assay [2] has as its system PEPCK promoter. As to the kind of experiment: Transient assay of HepG2 cells with PEPCK luciferase reporter. As to conditions: HepG2, PEPCK reporter plasmid, cAMP agonist. The assay is classed as cell-based, human.
Excerpt: as §1, §2

On to `C=C[C@@]1(C)CC(=O)[C@]2(O)[C@@]3(C)[C@@H](O)CCC(C)(C)[C@@H]3[C@H](O)[C@H](OC(C)=O)[C@@]2(C)O1` [cAMP agonist, Forskolin], for which, in assay [1] (HepG2, PGC-1 luciferase reporter (-170 to +68), forskolin 10 μM), the “induction of PGC-1 promoter activity” value is 3–4 fold. For the same compound, the “stimulation of PEPCK promoter activity” value in assay [2] was 3–4 fold.
Consider insulin, for which the “effect on PGC-1 reporter activity” value in assay [1] (HepG2, insulin 10 nM) is “blocked”.
